The values below come from US8008340B2, “3-arylthioindole-2-carboxamide derivatives and analogs thereof as inhibitors of casein kinase I” (Aventis Pharmaceuticals Inc., priority 2004, dated 2011).

For orientation: pIC50 means the negative decadic logarithm of the IC50, by convention in mol/L. As usually defined, the melting point is the temperature, or range, at which the solid turns liquid.

SMILES strings stand for the structures. pIC50: −log10 of the molar value. Bounds are passed on as bounds.

T1 sequence (P49674 whole entry): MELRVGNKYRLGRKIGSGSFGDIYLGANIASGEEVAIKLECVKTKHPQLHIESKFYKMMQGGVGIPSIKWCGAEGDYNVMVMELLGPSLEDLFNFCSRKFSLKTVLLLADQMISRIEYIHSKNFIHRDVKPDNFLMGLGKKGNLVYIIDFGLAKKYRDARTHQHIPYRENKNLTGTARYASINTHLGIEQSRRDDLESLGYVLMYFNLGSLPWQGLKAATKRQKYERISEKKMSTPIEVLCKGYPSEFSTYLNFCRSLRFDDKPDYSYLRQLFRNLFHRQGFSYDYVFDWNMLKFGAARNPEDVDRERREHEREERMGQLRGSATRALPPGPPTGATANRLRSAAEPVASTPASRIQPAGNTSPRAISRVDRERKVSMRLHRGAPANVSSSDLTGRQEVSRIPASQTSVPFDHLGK

The first data set concerns the target T1, casein kinase 1ε (Homo sapiens, UniProt P49674).
T1 construct: made in house
As to the kind of experiment: Casein Kinase Epsilon 33P-ATP Filter Plate Assay. In kind it is biochemical. Conditions: phosphorylation of casein, 33P-ATP with 10 μM cold ATP, 2 hours at room temperature; * denotes average of two or more determinations; read-out: CKIε Inhibition IC50. How it is done: Casein Kinase Epsilon ^33P-ATP Filter Plate Assay for Screening CK1ε Inhibitors Purpose: This assay measures the effect of compounds to inhibit the phosphorylation of the substrate casein by the enzyme casein kinase 1ε using an in vitro ^33P-ATP filtration assay. Compounds are tested at five concentrations in duplicate in order to generate IC50 values or % inhibition at a 10 micromolar concentration that are summarized in Table 4.
Enzyme: • Casein Kinase 1ε final concentration 0.58 mg/ml obtained from fermentation and purification processes as are well known to one skilled in the art. The above are stored as 100 μL aliquots at minus 80° C.
Compounds: • Compounds for testing are supplied as frozen 10 mM compound stock dissolved in 100% DMSO. Assay Conditions:
Final total assay volume per well is equal to 50 μL made up as follows: • 5 μL of diluted compound stock (10, 1, 0.1, 0.01 or 0.001 μM), • 5 μL of dephosphorylated casein final concentration 0.2 μg/μL, • 20 μL of CK1ε final concentration 3 ng/μL, and • 20 μL of γ-^33P-ATP final concentration 0.02 μCi/μL mixed with cold ATP (10 μM final). Methodology: • 1. 500 mL of fresh assay buffer is made: 50 mM Tris pH 7.5, 10 mM MgCl2, 2 mM DTT and 1 mM EGTA • 2. Compounds to be evaluated are obtained as 10 μL of 10 mM stock dissolved in 100% DMSO. Using a Biomek 2000 liquid handling robot, serial dilutions are made to yield 10, 1, 0.1, 0.01 and 0.001 μM final compound dilutions added as 5 μL additions to Falcon U bottom plates. Typically 8 compounds are tested per 96 well plate with column 1 and 12 serving as control wells. A routine screening assay will consist of 32 compounds, which equals 4 assay plates. • 3. Assay plate maps are set up according to the following pattern CKlePlateMap.xls
• 4. Once 5 μL of compound has been added as indicated, 5 μL of dephosphorylated casein (dissolved in distilled H2O)(0.2 μg/μL) and 20 μL CK1ε (3 ng/μL) are added to the appropriate wells. • 5. Finally 20 μL γ-^33P-ATP (0.02 μCi/μL)/10 μM cold ATP are added (equals approximately 2×10^6 CPM per well). • 6. The Falcon U-Bottom assay plate containing the above 50 μL reaction volume is vortexed and then incubated at room temperature for 2 hours. • 7. At the end of 2 hours, the reaction is stopped by the addition of 65 μL of ice cold 2 mM cold ATP (made up in assay buffer) to the assay plates using a Beckman Multimek • 8. At the same time 25 μL 100% ice cold TCA made up in distilled H2O is added to a matching number of Millipore MAPH filter plates. • 9. Using a handheld 8-channel pipettor, 100 μL of the reaction mixture is transferred from the Falcon U-Bottom Plate to the Millipore MAPH filter plates presoaked with TCA. • 10. The Millipore MAPH filter plates are mixed gently and allowed to sit at room temperature for at least 30 minutes to precipitate the proteins. • 11. After 30 minutes the filter plates are placed on a Millipore vacuum manifold and filtered at no more than 8 mm Hg as the MAPH filters tend to “air lock” at higher vacuum settings. • 12. The filter plates are sequentially washed and filtered with 2×150 μL 20% TCA, 2×150 μL 10% TCA and 2×150 μL 5% TCA (total of 6 washes per plate/900 μL per well). • 13. Plates are allowed to dry overnight at room temperature. The next day 40 μL Packard Microscint-20 Scintillation Fluid is added per well using a Titertek Multidrop dispenser; the plates are sealed and counted for 2 minutes/well in a Packard Topcount NXT Scintillation Counter (CPM values/well are captured).
Calculation: • 1. Counts Per Minute (CPM) data is captured and imported into a proprietary data calculation and archiving database (Activity Base by IDBS version 5.0). • 2. Column 1 for each plate reflects total phosphorylation activity of the enzyme in the absence of any inhibiting compound and thus represents 100%. Column 12 reflects any nonspecific phosphorylation/retained radioactivity activity in the absence of inhibiting compound and enzyme. […]
Consider `NC(=O)c1[nH]c2ccc(Cl)cc2c1S(=O)(=O)c1ccccc1` [Ia, 3-Benzensulfonyl-5-chloro-1H-indole-2-carboxylic acid amide], for which the pIC50 was below 5.00. For the compound `NC(=O)c1[nH]c2ccccc2c1S(=O)(=O)c1ccccc1` [Ib, 3-Benzensulfonyl-1H-indole-2-carboxylic acid amide], the pIC50 is 5.57. The same measure, in the same setting: with `NC(=O)c1[nH]c2ccccc2c1Sc1ccccc1` [Ic, 3-Phenylsulfanyl-1H-indole-2-carboxylic acid amide] the figure was 5.51; with `NC(=O)c1[nH]c2ccc(Br)cc2c1Sc1ccccc1` [Id, 5-Bromo-3-phenylsulfanyl-1H-indole-2-carboxylic acid amide], 6.38. Still for that read-out and setting: then `COc1ccc2[nH]c(C(N)=O)c(Sc3ccccc3N)c2c1` [Ie, 3-(2-Amino-phenylsulfanyl)-5-methoxy-1H-indole-2-carboxylic acid amide], with 6.74. The same measure, in the same setting: then `NC(=O)c1[nH]c2ccccc2c1Sc1cccc(F)c1` [If, 3-(3-Fluoro-phenylsulfanyl)-1H-indole-2-carboxylic acid amide], with 6.37; and `NC(=O)c1[nH]c2ccccc2c1Sc1ccccc1N` [Ih, 3-(2-Amino-phenylsulfanyl)-1H-indole-2-carboxylic acid amide], with 7.10; and `NC(=O)c1[nH]c2ccccc2c1Sc1ccccn1` [Ii, 3-(Pyridin-2-ylsulfanyl)-1H-indole-2-carboxylic acid amide], with 3.73.

On to `CNC(=O)c1[nH]c2ccccc2c1Sc1ccccc1` [Ij, 3-Phenylsulfanyl-1H-indole-2-carboxylic Acid Methylamide], for which the negative logarithm of the IC50 (pIC50) is below 5.00.

For the compound `CNC(=O)c1[nH]c2ccccc2c1Sc1ccccn1` [Ik, 3-(Pyridin-2-ylsulfanyl)-1H-indole-2-carboxylic acid methylamide], the pIC50 is below 5.00. Still for that read-out and setting: with `NC(=O)c1[nH]c2ccccc2c1Oc1ccccc1` [Il, 3-Phenoxy-1H-indole-2-carboxylic acid amide] the figure was below 5.00; with `COc1ccc(Oc2c(C(N)=O)[nH]c3ccccc23)cc1` [Im], 5.24; with `NC(=O)c1[nH]c2ccccc2c1Oc1ccc(F)cc1` [In], 6.05. On the same count and under the same terms, then `NC(=O)c1[nH]c2ccccc2c1Oc1ccccc1F` [Io], with 5.62. Still for that read-out and setting: with `NC(=O)c1[nH]c2ccccc2c1Oc1ccc(Cl)cc1` [Ip] the figure was 5.55; with `COc1c(C(N)=O)[nH]c2ccccc12` [Iq, 3-Methoxy-1H-indole-2-carboxylic acid amide], 4.87.

With `CCOc1c(C(N)=O)[nH]c2ccccc12` [Ir, 3-Ethoxy-1H-indole-2-carboxylic acid amide], the pIC50 is 5.06. Consider `CC(C)Oc1c(C(N)=O)[nH]c2ccccc12` [Is, 3-Isopropoxy-1H-indole-2-carboxylic acid amide], for which the pIC50 is 5.05. Consider `CC(C)(C)Oc1c(C(N)=O)[nH]c2ccccc12` [It, 3-tert-Butoxy-1H-indole-2-carboxylic acid amide], for which the pIC50 was 4.93. On to `NC(=O)c1[nH]c2ccccc2c1OCc1ccccc1` [Iu, 3-Benzyloxy-1H-indole-2-carboxylic acid amide], for which the pIC50 is 5.00.

The next data set deals with Mper1-luc Rat-1 fibroblasts (P2C4). Kind of data set: Cellular Circadian Assay (Mper1-luc reporter, period lengthening). In kind it is cell-based. Conditions: effective micromolar concentration that induced a 1 hour lengthening of period. The source says:
U.S. Pat. No. 6,555,328 B1 discloses screening methods in cells to identify compounds that alter circadian rhythms based on a test compound altering the ability of human casein kinase 1ε and/or human casein kinase 1δ to phosphorylate the human clock proteins hPER1, hPER2 and hPER3. For example, HEK293T cells are co-transfected with hCKIε and Per1 or Per2. For the purpose of evaluating the relevancy of CKIε inhibition and CKIε inhibitors to circadian biology, a high-throughput cellular assay (33rd Annual Meeting, Soc. for Neurosci., Nov. 8-12, 2003, Abstract numbers 284.1, 284.2, and 284.3) was developed in which circadian rhythm could be monitored in a routine manner. The assay consists of Rat-1 fibroblasts stably expressing an Mper1-luc construct, thus enabling the determination of the rhythmic activation of the Mper1 promoter in living cells by repeatedly estimating luciferase activity by monitoring light-output over several days. The repeated measure format of the assay permits accurate and reproducible assessment of the concentration-dependent effects of CKIε inhibitors on circadian rhythm and provides the nexus for relating CKIε inhibition to circadian period alteration.
Cell culture: Mper1-luc Rat-1 fibroblasts (P2C4) cultures were split every 3-4 days (˜10-20% confluence) onto 150 cm^2 vented polystyrene tissue culture flasks (Falcon #35-5001) and maintained in growth media [EMEM (Cellgro #10-010-CV); 10% fetal bovine serum (FBS; Gibco #16000-044); and 50 I.U./mL penicillin-streptomycin (Cellgro #30-001-C1)] at 37° C. and 5% CO2. […] Zeocin-resistant stable transfectants were assessed for reporter expression by supplementing growth media with 100 μM luciferin (Promega #E1603) and assaying luciferase activity on a TopCount scintillation counter (Packard Model #C384V00). Rat-1 clones expressing both Zeocin-resistance and mPer1-driven luciferase activity were synchronized by 50% horse serum [HS (Gibco #16050-122)] serum shock and assessed for circadian reporter activity. […]
Turning to `COc1ccc2[nH]c(C(N)=O)c(Sc3ccccc3N)c2c1` [Ie, 3-(2-Amino-phenylsulfanyl)-5-methoxy-1H-indole-2-carboxylic acid amide], the “Cell Assay ECΔτ+1h” value is above 10 µM. Same read-out and setting: then `NC(=O)c1[nH]c2ccccc2c1Sc1cccc(F)c1` [If, 3-(3-Fluoro-phenylsulfanyl)-1H-indole-2-carboxylic acid amide], with 1.6 µM.

System in the next data set: not given
Test: not given
Settings: not given
In turn, `O=C(c1[nH]c2ccc(F)cc2c1Sc1ccccn1)N1CCCC1` [Iaf, [5-Fluoro-3-(pyridin-2-ylsulfanyl)-1H-indol-2-yl]-pyrrolidin-1-yl-methanone] registered a melting point of 254 to 255 °C. Same read-out and setting: then `O=C(c1[nH]c2ccccc2c1Sc1ccccn1)N1CCCC1` [Iag, [3-(Pyridin-2-ylsulfanyl)-1H-indol-2-yl]-pyrrolidin-1-yl-methanone], with 213 to 214 °C. The same measure, in the same setting: then `NC(=O)c1[nH]c2ccccc2c1Sc1ccccc1` [Ic, 3-Phenylsulfanyl-1H-indole-2-carboxylic acid amide], with 197 to 197.5 °C. `Cc1ccc(Sc2c(C(=O)N3CCCC3)[nH]c3ccc(F)cc23)cc1` [Iw, (5-Fluoro-3-p-tolylsulfanyl-1H-indol-2-yl)-pyrrolidin-1-yl-methanone] had a melting point of 254 to 255 °C. The same measure, in the same setting: with `O=C(c1[nH]c2ccccc2c1Sc1ccccc1)N1CCCCC1` [Ix, (3-Phenylsulfanyl-1H-indol-2yl)-piperidin-1-yl-methanone] the figure was 161 to 162 °C. On the same count and under the same terms, with `O=C(c1[nH]c2ccc(F)cc2c1Sc1ccccc1)N1CCCC1` [Iy, (5-Fluoro-3-phenylsulfanyl-1H-indol-2-yl)-pyrrolidin-1-yl-methanone] the figure was 254 to 255 °C.
